Measured values published in US11661427B2, “Tetrazole derivatives as TRPA1 inhibitors” (Boehringer Ingelheim International GmbH, priority 2020, dated 2023).

Experiments:
human TRPA1 ion channel = human TRPA1 ion channel (Homo sapiens (Human), UniProt O75762); test: Assay A: TRPA1 assay (FLIPR calcium assay, AITC agonism, HEK293 cells over-expressing human TRPA1); format: cell-based; details: AITC 10 μM, FLIPRtetra, AUC after AITC addition, read-out: hTRPA1 IC50
Experimental: A human HEK293 cell line over-expressing the human TRPA1 ion channel (Perkin Elmer, Product No. AX-004-PCL) is used as a test system for compound efficacy and potency. Compound activity is determined by measuring the effect of compounds on intracellular calcium concentration induced by AITC (Allylisothiocyanat) agonism in a FLIPRtetra system (Molecular Devices).
Cells are grown in culture medium (MEM/EBSS medium with 10% FCS and 0.4 mg/ML Geneticin). […] For sub-culturing cells are detached from flasks by Versene. At the day before the assay, cells are detached, washed twice with medium (MEM/EBSS medium with 10% FCS) and 20000 cells in 20 μl/well are seeded to Poly D-Lysin biocoated 384-well plates (black, clear bottom, Cat. 356697) from Corning. Plates are incubated for 24 hours at 37° C./5% CO2 before use in the assay.
The test compounds are dissolved in 100% DMSO at a concentration of 10 mM and in a first step diluted in DMSO to a concentration of 5 mM, followed by serial dilution steps in 100% DMSO. Dilution factor and number of dilution steps may vary according to needs. Typically 8 different concentrations by 1:5 dilutions are prepared, further intermediate dilutions (1:20) of the substances are carried out with HBSS/HEPES buffer (1×HEPES, Cat. 14065 from Gibco, 20 mM HEPES, Cat. 83264 from SIGMA, 0.1% BSA Cat. 11926 from Invitrogen, pH 7.4
At the assay day cells are washed 3× with assay puffer, 20 μL buffer remaining in the wells after washing. 10 μL Ca6 kit (Cat. R8191 MolecularDevices) loading buffer in HBSS/HEPES is added to the cells and the plates are incubated with lid for 120 minutes at 37°/5% CO2. 10 μL of compound or controls in HBSS/HEPES buffer/5% DMSO from the intermediate dilution plate are carefully added to the wells. […] Finally 10 μL of the agonist AITC 50 μM dissolved in HBSS/HEPES buffer/0.05% DMSO (final concentration 10 μM) is added to the wells followed by an additional read on the FLIPRtetra device for 10 minutes. The area under the signal curve (AUC) after AITC addition is used for IC50/% inhibition calculations
Each assay microtiter plate contains wells with vehicle (1% DMSO) controls instead of compound as controls for AITC induced luminescence (100% CTL; high controls) and wells with vehicle controls without AITC as controls for non-specific changes in luminescence (0% CTL; low controls).
The analysis of the data is performed by the calculation of the area under signal curve of the individual wells. Based on this values the % value for the measurement of each substance concentration is calculated (AUC(sample)−AUC(low))*100/(AUC(high)−AUC(low)) using MegaLab software (in house development). The IC50 values are calculated from the % control values using MegaLab software. Calculation: [y=(a−d)/(1+(x/c)^B)+d], a=low value, d=high value; x=conc M; c=IC50 M; b=hill; y=% ctrl

[1] = Assay B: Microsomal clearance; format: in vitro ADME; details: pooled liver microsomes, 1 μM test compound, 37° C.; Tables 5 and 6 of the same assay are headed human LM [% Qh]
Experimental: Evaluation of Microsomal Clearance Assay B: Microsomal Clearance:
The metabolic degradation of the test compound is assayed at 37° C. with pooled liver microsomes. The final incubation volume of 100 μl per time point contains TRIS buffer pH 7.6 at RT (0.1 M), magnesium chloride (5 mM), microsomal protein (1 mg/ml) and the test compound at a final concentration of 1 μM.
Following a short preincubation period at 37° C., the reactions are initiated by addition of beta-nicotinamide adenine dinucleotide phosphate, reduced form (NADPH, 1 mM) and terminated by transferring an aliquot into solvent after different time points (0, 5, 15, 30, 60 min). Additionally, the NADPH-independent degradation is monitored in incubations without NADPH, terminated at the last time point. The [%] remaining test compound after NADPH independent incubation is reflected by the parameter c(control) (metabolic stability). The quenched incubations are pelleted by centrifugation (10000 g, 5 min).
An aliquot of the supernatant is assayed by LC-MS/MS for the amount of parent compound. The half-life (t1/2 INVITRO) is determined by the slope of the semilogarithmic plot of the concentration-time profile.

[2] = Assay C: Hepatocyte clearance; format: in vitro ADME, human; details: hepatocyte suspension, 5% species serum, 1 μM test compound, six hours
Experimental: Evaluation of Hepatocyte Clearance Assay C: Hepatocyte Clearance
The metabolic degradation of the test compound is assayed in a hepatocyte suspension. Hepatocytes (cryopreserved) are incubated in Dulbecco's modified eagle medium (supplemented with 3.5 μg glucagon/500 mL, 2.5 mg insulin/500 mL and 3.75 mg/500 mL hydrocortison) containing 5% species serum.
Following a 30 min preincubation in an incubator (37° C., 10% CO2) 5 μl of test compound solution (80 μM; from 2 mM in DMSO stock solution diluted 1:25 with medium) are added into 395 μl hepatocyte suspension (cell density in the range 0.25-5 Mio cells/mL depending on the species, typically 1 Mio cells/mL; final concentration of test compound 1 μM, final DMSO concentration 0.05%).
The cells are incubated for six hours (incubator, orbital shaker) and samples (25 μl) are taken at 0, 0.5, 1, 2, 4 and 6 hours. Samples are transferred into acetonitrile and pelleted by centrifugation (5 min). The supernatant is transferred to a new 96-deepwell plate, evaporated under nitrogen and resuspended.
Decline of parent compound is analyzed by HPLC-MS/MS
CLint is calculated as follows CL_[…]=Dose/AUC=(C0/CD)/(AUD+clast/k)×1000/60. C0: initial concentration in the incubation [μM], CD: cell density of vital cells [10e6 cells/mL], AUD: area under the data [μM×h], clast: concentration of last data point [μM], k: slope of the regression line for parent decline [h−1].
The calculated in vitro hepatic intrinsic clearance can be scaled up to the intrinsic in vivo hepatic Clearance and used to predict hepatic in vivo blood clearance (CL) by the use of a liver model (well stirred model).

human TRPA1 ion channel, sequence (O75762 whole entry): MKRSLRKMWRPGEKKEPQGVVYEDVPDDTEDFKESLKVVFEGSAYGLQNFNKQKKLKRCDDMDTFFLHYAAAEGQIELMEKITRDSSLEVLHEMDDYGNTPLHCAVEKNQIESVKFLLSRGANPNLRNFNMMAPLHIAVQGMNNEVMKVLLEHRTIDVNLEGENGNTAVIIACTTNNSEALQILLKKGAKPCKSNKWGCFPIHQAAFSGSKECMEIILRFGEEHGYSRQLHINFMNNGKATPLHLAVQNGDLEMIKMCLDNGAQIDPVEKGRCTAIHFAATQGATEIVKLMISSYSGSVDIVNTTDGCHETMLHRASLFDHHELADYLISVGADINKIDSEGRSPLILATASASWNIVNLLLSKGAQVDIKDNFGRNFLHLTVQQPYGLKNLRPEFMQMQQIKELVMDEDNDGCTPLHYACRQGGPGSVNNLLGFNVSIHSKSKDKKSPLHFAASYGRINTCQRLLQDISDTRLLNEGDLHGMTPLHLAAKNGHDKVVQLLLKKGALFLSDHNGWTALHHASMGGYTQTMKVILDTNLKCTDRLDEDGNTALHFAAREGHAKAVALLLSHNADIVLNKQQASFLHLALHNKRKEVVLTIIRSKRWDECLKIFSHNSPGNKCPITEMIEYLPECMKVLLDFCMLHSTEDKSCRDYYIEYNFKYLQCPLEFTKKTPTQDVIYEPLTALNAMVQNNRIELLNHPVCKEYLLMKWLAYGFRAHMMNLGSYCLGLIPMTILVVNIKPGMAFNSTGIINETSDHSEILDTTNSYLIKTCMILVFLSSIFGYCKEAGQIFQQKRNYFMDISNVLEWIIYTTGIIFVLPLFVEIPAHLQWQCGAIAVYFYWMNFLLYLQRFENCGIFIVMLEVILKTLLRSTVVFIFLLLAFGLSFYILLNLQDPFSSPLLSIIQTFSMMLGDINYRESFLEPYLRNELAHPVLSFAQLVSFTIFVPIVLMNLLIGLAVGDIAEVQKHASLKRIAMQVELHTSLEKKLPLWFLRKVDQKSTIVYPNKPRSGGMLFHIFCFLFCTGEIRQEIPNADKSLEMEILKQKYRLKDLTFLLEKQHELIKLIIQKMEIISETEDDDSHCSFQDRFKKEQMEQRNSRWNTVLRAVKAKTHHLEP

SMILES | IC50 (human TRPA1 ion channel) [nM] | Assay B result (column head not printed in Table 4) [1] [%] | human Hepatocytes [2] [% Qh]
Cc1ccc([C@@H](O)Cn2nnc(Cn3cnc4oc(C)c(C(N)=O)c4c3=O)n2)cc1 [Example 1, 3-({2-[(2R)-2-hydroxy-2-(4-methylphenyl)ethyl]-2H-1,2,3,4-tetrazol-5-yl}methyl)-6-methyl-4-oxo-3H,4H-furo[2,3-d]pyrimidine-5-carboxamide] | 24 | < 23 | 4
Cc1c(C(N)=O)oc2ncn(Cc3nnn(C[C@H](O)c4cc5ccccc5s4)n3)c(=O)c12 [Example 2] | 10 | < 23 | 23
Cc1c(C(N)=O)oc2ncn(Cc3nnn(C[C@H](O)c4ccc(Cl)s4)n3)c(=O)c12 [Example 3] | 10 | < 23 | 5
Cc1oc2ncn(Cc3nnn(C[C@H](O)c4cc5ccc(F)cc5s4)n3)c(=O)c2c1C(N)=O [Example 4] | 10 | < 23 | 30
Cc1oc2ncn(Cc3nnn(C[C@H](O)c4cc5ccccc5s4)n3)c(=O)c2c1C(N)=O [Example 5] | 11 | < 23 | 23
Cc1c(C(N)=O)oc2ncn(Cc3nnn(C[C@H](O)c4cc5cc(Cl)ccc5o4)n3)c(=O)c12 [Example 6] | 13 | < 23 | 24
Cc1oc2ncn(Cc3nnn(C[C@H](O)c4ccc(Cl)s4)n3)c(=O)c2c1C(N)=O [Example 7] | 20 | < 23 | 15
Cc1ccc([C@@H](O)Cn2nnc(Cn3cnc4oc(C(N)=O)c(C)c4c3=O)n2)cc1 [Example 8] | 21 | < 23 | 14
Cc1oc2ncn(Cc3nnn(C[C@H](O)c4ccc(Cl)cc4)n3)c(=O)c2c1C(N)=O [Example 9] | 23 | < 23 | 16

Now from value to compound:

IC50 (human TRPA1 ion channel) [nM] | Assay B result (column head not printed in Table 4) [1] [%] | human Hepatocytes [2] [% Qh] | SMILES
23 | < 23 | <4 | Cc1c(C(N)=O)oc2ncn(Cc3nnn(C[C@H](O)c4ccc(Cl)cc4)n3)c(=O)c12 [Example 10]
26 | < 23 | 8 | Cc1oc2ncn(Cc3nnn(C[C@H](O)c4cc5ccccc5o4)n3)c(=O)c2c1C(N)=O [Example 11]
29 | < 23 | 16 | Cc1oc2ncn(Cc3nnn(C[C@H](O)c4ccc(Br)cc4)n3)c(=O)c2c1C(N)=O [Example 12]
49 | 26 | 22 | Cc1oc2ncn(Cc3nnn(C[C@H](O)c4cc5cccc(F)c5o4)n3)c(=O)c2c1C(N)=O [Example 13]
12 | 42 | 42 | Cc1oc2ncn(Cc3nnn(C[C@H](O)c4cc5cc(Cl)ccc5o4)n3)c(=O)c2c1C(N)=O [Example 14]
18 | < 23 | 21 | Cc1oc2ncn(Cc3nnn(C[C@H](O)c4cc5cc(F)ccc5o4)n3)c(=O)c2c1C(N)=O [Example 15]
